Measurements reported in ChEMBL document CHEMBL6109175, “Ubiquitin-Specific Protease 7 (USP7) as a Promising Therapeutic Target for Drug Discovery: From Mechanisms to Therapies” (J Med Chem, 2025).

Tests used:
[1] = molecular target: T1, Ubiquitin carboxyl-terminal hydrolase 7 (Homo sapiens, UniProt Q93009); test: Inhibition of N-terminal His-tagged USP7 catalytic domain (208 to 554 residues) (unknown origin) by TR-FRET assay
[2] = molecular target: T1, Ubiquitin carboxyl-terminal hydrolase 7; test: Binding affinity to USP7 catalytic domain human USP7 (208 to 560 residues) (unknown origin) extracted from Escherichia coli assessed as dissociation constant
[3] = molecular target: T1, Ubiquitin carboxyl-terminal hydrolase 7; test: Inhibition of USP7 catalytic domain human USP7 (208 to 560 residues) (unknown origin) extracted from Escherichia coli
[4] = molecular target: T1, Ubiquitin carboxyl-terminal hydrolase 7; test: Inhibition of full length USP7 (unknown origin)

T1 sequence (Q93009 whole entry, the tested form may be a part): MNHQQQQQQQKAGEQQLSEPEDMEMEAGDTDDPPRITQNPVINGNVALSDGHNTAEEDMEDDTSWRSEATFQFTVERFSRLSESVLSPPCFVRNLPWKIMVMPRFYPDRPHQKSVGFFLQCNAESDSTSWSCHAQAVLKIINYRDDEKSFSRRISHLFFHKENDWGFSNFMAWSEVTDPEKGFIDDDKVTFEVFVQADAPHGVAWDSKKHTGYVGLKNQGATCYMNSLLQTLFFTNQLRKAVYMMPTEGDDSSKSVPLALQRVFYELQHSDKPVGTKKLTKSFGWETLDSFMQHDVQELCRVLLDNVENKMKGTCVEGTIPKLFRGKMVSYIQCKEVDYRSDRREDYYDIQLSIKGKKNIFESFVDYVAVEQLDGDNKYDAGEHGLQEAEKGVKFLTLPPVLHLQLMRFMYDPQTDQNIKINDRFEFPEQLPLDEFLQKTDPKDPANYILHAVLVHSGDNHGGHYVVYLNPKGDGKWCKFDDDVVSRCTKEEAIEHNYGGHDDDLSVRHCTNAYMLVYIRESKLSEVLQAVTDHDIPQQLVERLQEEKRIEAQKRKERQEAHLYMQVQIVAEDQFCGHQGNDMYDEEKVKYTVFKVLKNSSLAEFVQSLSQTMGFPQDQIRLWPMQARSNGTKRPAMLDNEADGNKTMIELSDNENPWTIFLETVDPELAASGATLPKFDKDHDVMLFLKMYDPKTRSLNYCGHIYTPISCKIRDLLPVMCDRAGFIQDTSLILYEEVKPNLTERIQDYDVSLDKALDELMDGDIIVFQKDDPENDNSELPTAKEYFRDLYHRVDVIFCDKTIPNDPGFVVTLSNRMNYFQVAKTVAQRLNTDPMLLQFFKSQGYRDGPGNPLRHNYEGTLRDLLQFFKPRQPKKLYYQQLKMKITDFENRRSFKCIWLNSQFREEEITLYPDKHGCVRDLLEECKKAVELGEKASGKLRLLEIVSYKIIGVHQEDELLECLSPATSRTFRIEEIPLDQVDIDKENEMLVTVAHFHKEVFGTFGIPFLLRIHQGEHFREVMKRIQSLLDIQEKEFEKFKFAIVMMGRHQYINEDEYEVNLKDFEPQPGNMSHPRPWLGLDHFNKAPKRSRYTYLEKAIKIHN

`CCc1c(-c2ccc(C(=O)NC)nc2)cnc(N)c1-c1ccc(O)cc1` was tested. Which IC50 [1] did it give?
The IC50 was 0.61 µM.

How did the Kd [2] turn out when `O=C(C[C@@H](C(F)F)n1ccc(F)n1)N1CCC(O)(Cn2cnc3c(cnn3-c3ccc(F)cc3)c2=O)CC1` was run?
The Kd was 0.065 µM.

What about the IC50 [3] of the same molecule?
Its IC50 is 52 µM.

For `O=C(CCc1ccccc1)N1CCC(O)(Cn2cnc3cc(Cl)ccc3c2=O)CC1`, which IC50 [4] is on record?
The IC50 was 10.2 µM.
